Measurements taken from US5302610A, “Renal-selective biphenylmethyl imidazole angiotensin II antagonists for treatment of hypertension” (G. D. Searle & Co., priority 1991, dated 1994).

Experiments:
angiotensin II receptors = settings: cited from earlier work
guanylate cyclase = settings: cited from earlier work
[1] = in vivo; cited from earlier work
[2] = test system: γ-glutamyl transpeptidase; settings: dogs; cited from earlier work
[3] = test system: non-renal, vascular angiotensin II receptors; assay: Assay D: AII Pressor Response during chronic infusion of conjugate; assay type: in vivo, spontaneously hypertensive rats (SHR); settings: for AII Pressor Response (MAP): AII 100 ng/kg bolus
Experimental: (§1) This in vivo experiment was conducted to characterize the effects of the Example 81 conjugate on spontaneously hypertensive rats (SHR) by acute administration i.v. and by chronic administration i.v. The Example 81 compound or saline vehicle was infused continuously for four days in SHR. Mean arterial pressure was measured (Gould Chart Recorder, model 3800; Statham P23Db pressure transducer) via an indwelling femoral artery catheter between 10:00 A. M. and 2:00 P. M. each day. The Example 81 conjugate (10 mg/hr) or saline was infused via a jugular vein catheter with a Harvard infusion pump. […] A test was conducted to determine whether the Example 81 conjugate would antagonize non-renal, vascular angiotensin II receptors. In this test AII was administered by bolus injection (100 ng/kg) to the SHR rats (described above) on the control day and on days 1, 2 and 3 during conjugate infusion.

[4] = test system: response to angiotensin II (urinary sodium excretion); assay: Assay E: Urinary Sodium Excretion, acute administration with AII infusion; assay type: in vivo, male Sprague-Dawley rats, conscious; settings: for Urinary Sodium Excretion: means±SE
Experimental: (§2) antagonist compound (Ex. #5) and a glutamyl conjugate (Ex. #81) of the Ex. #5 AII antagonist compound to determine the renal selectivity of the conjugate. Male Sprague-Dawley rats (300-350 g body weight) had catheters implanted into the femoral artery and vein under chloral hydrate anesthesia (400 mg/kg, i.p.). After 2 to 4 days of recovery, on the experimental day, a urinary bladder catheter was implanted under methohexital anesthesia (50 mg/kg, i.p.). Rats were placed in a restraint device to allow for urine collection and mean arterial pressure measurements. After 1-2 hours of recovery, in conscious rats, an isotonic saline infusion (50 μl/min) was started and continued for the duration of the experiment. After one hour equilibration to the saline infusion, a 20 minute control urine and mean arterial pressure collection were obtained. Then angiotensin II was infused at 20 ng/min for 25 minutes. After 5 minutes of angiotensin II infusion, a 20 minute experimental collection was made. Finally, 5 minutes after the end of angiotensin II infusion, a 20 minute recovery collection was obtained. In separate groups of rats, vehicle (0.3 ml isotonic saline, i.v. bolus), Example #5 angiotensin II antagonist compound (100 mg/kg, i.v. bolus), or Example #81 conjugate (100 mg/kg, i.v. bolus) was administered 1-2 minutes prior to onset of angiotensin II infusion. […] Results are shown in Tables XIII and XIV and also in FIGS. 3 and 4. Data are presented as means±SE. Repeated measures analysis of variance was used for main effects and interactions and Tukey's HSD test was used for pairwise comparisons among means. Statistical significance was defined as p<0.05.

[5] = test system: response to angiotensin II (mean arterial pressure); assay: Assay E: Mean Arterial Pressure, acute administration with AII infusion; assay type: in vivo, male Sprague-Dawley rats, conscious; settings: for Mean Arterial Pressure: n = 6, means±SE
Experimental: as §2

[6] = test system: spontaneously hypertensive rats (SHR); assay: Assay D: Mean Arterial Pressure, chronic infusion of conjugate; assay type: in vivo
Experimental: as §1

kidney = settings: normal subjects; cited from earlier work
dopa-decarboxylase = settings: in vivo; cited from earlier work
angiotensin II = settings: binding experiments, functional assays and in vivo tests; cited from earlier work
[7] = Control day (baseline before infusion)
[8] = 100 mg/kg i.v. bolus, Recovery after AII infusion
[9] = 100 mg/kg i.v. bolus, during AII infusion 20 ng/min, * in table
[10] = 100 mg/kg, i.v. bolus, AII 20 ng/min

CNCC(=O)N[C@@H](CCCN=C(N)N)C(=O)N[C@H](C(=O)N[C@@H](Cc1ccc(O)cc1)C(=O)N[C@H](C(=O)N[C@@H](Cc1cnc[nH]1)C(=O)N1CCC[C@H]1C(=O)N[C@@H](C)C(=O)O)C(C)C)C(C)C [Saralasin]
residual agonist activity (angiotensin II receptors): have a significant residual agonist activity

CCCCc1ccc(NN)nc1 [2-hydrazino-5-n-butylpyridine]
guanylate cyclase activity (guanylate cyclase): stimulates guanylate cyclase activity

CCCCc1ccc(NNC(=O)CCC(NC(C)=O)C(=O)O)nc1 (stereo not drawn)
renal vasodilation [1]: provided selective renal vasodilation

N[C@@H](CCC(=O)NCCc1ccc(O)c(O)c1)C(=O)O [L-γ-glutamyl amide of dopamine]
generation of dopamine in vivo [2]: generate dopamine in vivo by specific enzymatic cleavage by γ-glutamyl transpeptidase

CCCCc1nc(Cl)c(CO)n1Cc1ccc(-c2ccccc2C(=O)NNC(=O)CC[C@H](NC(C)=O)C(=O)O)cc1 [Example 81, N-acetyl-L-glutamic acid, 5-[[4'-[2-butyl-4-chloro-5-(hydroxymethyl)-1H-imidazol-1-ylmethyl][1,1'-biphenyl]-2-yl]carbonyl]hydrazide]
systemic angiotensin II receptor antagonism ([3]; 10 mg/hr i.v. infusion, days 1, 2 and 3): No evidence for systemic angiotensin II receptor antagonism was observed
AII Pressor Response (MAP) ([3]; 10 mg/hr i.v. infusion, day 1): 45 mm Hg
AII Pressor Response (MAP) ([3]; 10 mg/hr i.v. infusion, day 2): 65 mm Hg
AII Pressor Response (MAP) ([3]; 10 mg/hr i.v. infusion, day 3): 60 mm Hg
AII Pressor Response (MAP) [3, 7]: 44 mm Hg
Urinary Sodium Excretion [4, 8]: 1.8 ± 0.4 μEq/min/100 g BW
Urinary Sodium Excretion [4, 9]: 4.1 ± 1.3 μEq/min/100 g BW
antinatriuretic (urinary sodium excretion) response to angiotensin II [4, 10]: prevented the antinatriuretic response to angiotensin II
urinary sodium excretion during angiotensin II infusion [4, 10]: actually increased urinary sodium excretion
Urinary Sodium Excretion ([4]; Control period (before dosing)): 1.3 ± 0.3 μEq/min/100 g BW
Mean Arterial Pressure [5, 8]: 121 ± 4 mm Hg
Mean Arterial Pressure [5, 9]: 151 ± 4 mm Hg
mean arterial pressure response to angiotensin II [5, 10]: had no effect on the mean arterial pressure response
Mean Arterial Pressure ([5]; Control period (before dosing)): 117 ± 3 mm Hg
mean arterial pressure as compared to saline vehicle control ([6]; 10 mg/hr i.v. infusion, SHR): lowered mean arterial pressure as compared to the saline vehicle control
Mean Arterial Pressure (MAP) ([6]; 10 mg/hr i.v. infusion, day 1): 148 mm Hg
Mean Arterial Pressure (MAP) ([6]; 10 mg/hr i.v. infusion, day 2): 135 mm Hg
Mean Arterial Pressure (MAP) ([6]; 10 mg/hr i.v. infusion, day 3): 140 mm Hg
Mean Arterial Pressure (MAP) [6, 7]: 163 mm Hg

angiotensin II: an octapeptide which is the primary active species of this system (DRVYIHPF; Angiotensin-2; UniProt P01019 25-32, looked up) [reference compound]
effect of angiotensin II infusion on urinary sodium excretion ([4]; AII 20 ng/min for 25 minutes): decreased urinary sodium excretion
effect of angiotensin II infusion on mean arterial pressure ([5]; AII 20 ng/min for 25 minutes): increased mean arterial pressure

N[C@@H](CCC(=O)N[C@@H](Cc1ccc(O)c(O)c1)C(=O)O)C(=O)O [gludopa, γ-L-glutamyl-L-dopa]
kidney specificity (kidney): relatively specific for the kidney
renal blood flow, glomerular filtration and urinary sodium excretion (kidney): increase renal blood flow, glomerular filtration and urinary sodium excretion in normal subjects
blockade of activity by the dopa-decarboxylase inhibitor carbidopa (dopa-decarboxylase): activity can be blocked by the dopa-decarboxylase inhibitor carbidopa

CCCCc1nc(Cl)c(CC(=O)O)n1Cc1ccccc1[N+](=O)[O-] [2-butyl-4-choloro-1-(2-nitrobenzyl)imidazole-5-acetic acid]
angiotensin II antagonist activity (angiotensin II): specific competitive angiotensin II antagonist activity

CCCCc1nc(Cl)c(CC(=O)O)n1Cc1ccccc1Cl [2-n-butyl-4-chloro-1-(2-chlorobenzyl)imidazole-5-acetic acid]
angiotensin II antagonist activity (angiotensin II): specific competitive angiotensin II antagonist activity
